Test results from patent publication US8809341B2, “2,4-pyrimidinediamine compounds and uses as anti-proliferative agents” (Rigel Pharmaceuticals, Inc., priority 2003, dated 2014).

Experiments:
[1] = test system: A549 cells; test: in vitro antiproliferation assay, A549 (lung); assay type: cell-based
Procedure, shortened: (§1)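 Standard in vitro antiproliferation assays on tumour cell lines, including A549 and H1299 (both lung); IC50 values determined.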

[2] = test system: H1299 cells; test: in vitro antiproliferation assay, H1299 (lung); assay type: cell-based
Procedure, shortened: as §1

[3] = IC50 class against A549 (lung) tumor cells
[4] = IC50 class against H1299 (lung) tumor cells
[5] = Homo sapiens, IC50 class against A549 (lung) tumor cells
[6] = Homo sapiens, NCI-H1299, IC50 class against H1299 (lung) tumor cells

Row | Compound | IC50 [1, 5] [µM] | IC50 [2, 6] [µM] | IC50 ([1]; A549 (lung) cells) [µM] | IC50 ([2]; H1299 (lung) cells) [µM] | other results
1 | Cc1ccc(F)c(Nc2ncc(F)c(Nc3ccc4c(c3)OCCO4)n2)c1 [compound 1048] | – | – | – | – | IC50 [1, 3]: ≤ 20 µM; IC50 [2, 4]: ≤ 20 µM
2 | COc1cc(Nc2ncc(F)c(Nc3ccc4c(c3)OCCO4)n2)c(OC)cc1Cl [compound 1049] | – | – | – | – | IC50 [1, 3]: ≤ 20 µM; IC50 [2, 4]: ≤ 20 µM
3 | COc1c(C)cc(Nc2ncc(F)c(Nc3cccc(Nc4ncc[nH]4)c3)n2)cc1C [compound 1050] | ≤ 20 | ≤ 20 | – | – | –
4 | COc1ccc(Nc2ncc(F)c(Nc3cccc(Nc4ncc[nH]4)c3)n2)cc1F [compound 1051] | ≤ 20 | ≤ 20 | – | – | –
5 | COc1cc(Nc2ncc(F)c(Nc3cccc(Nc4ncc[nH]4)c3)n2)cc(OC)c1 [compound 1053] | ≤ 20 | ≤ 20 | – | – | –
6 | Fc1cnc(Nc2cccc(N3CCOCC3)c2)nc1Nc1cccc(Nc2ncc[nH]2)c1 [compound 1054] | ≤ 20 | ≤ 20 | – | – | –
7 | CCOC(=O)N1CCN(c2cccc(Nc3ncc(F)c(Nc4cccc(Nc5ncc[nH]5)c4)n3)c2)CC1 [compound 1055] | > 20 | > 20 | – | – | –
8 | CN1CCN(c2ccc(Nc3ncc(F)c(Nc4cccc(Nc5ncc[nH]5)c4)n3)cc2)CC1 [compound 1056] | > 20 | > 20 | – | – | –
9 | COC(=O)N1CCN(c2ccc(Nc3ncc(F)c(Nc4cccc(Nc5ncc[nH]5)c4)n3)cc2)CC1 [compound 1057] | > 20 | > 20 | – | – | –
10 | Cc1c(O)cccc1Nc1ncc(F)c(Nc2ccc3c(c2)NC(=O)C(C)(C)O3)n1 [compound 1064] | – | – | ≤ 20 | ≤ 20 | –
11 | COc1cccc(Nc2ncc(F)c(Nc3ccc4c(c3)NC(=O)C(C)(C)O4)n2)c1C [compound 1065] | – | – | ≤ 20 | > 20 | –
12 | CCCn1ncc2cc(Nc3ncc(F)c(Nc4ccc(OC)c(Cl)c4)n3)ccc21 [compound 1074] | – | – | ≤ 20 | ≤ 20 | –
13 | CCCn1ncc2cc(Nc3ncc(F)c(Nc4ccc5c(c4)NC(=O)C(C)(C)O5)n3)ccc21 [compound 1076] | – | – | ≤ 20 | ≤ 20 | –
14 | CCCn1ncc2ccc(Nc3ncc(F)c(Nc4ccc(F)c(OC)c4)n3)cc21 [compound 1077] | – | – | ≤ 20 | ≤ 20 | –
15 | CCCCn1ncc2cc(Nc3ncc(F)c(Nc4ccc(Cl)c(Cl)c4)n3)ccc21 [compound 1083] | – | – | ≤ 20 | ≤ 20 | –
16 | CCCCn1ncc2cc(Nc3ncc(F)c(Nc4ccc(F)c(OC)c4)n3)ccc21 [compound 1085] | – | – | ≤ 20 | ≤ 20 | –
17 | CCCCn1ncc2ccc(Nc3ncc(F)c(Nc4ccc(Cl)c(Cl)c4)n3)cc21 [compound 1087] | – | – | ≤ 20 | ≤ 20 | –
18 | CCCCn1ncc2ccc(Nc3ncc(F)c(Nc4ccc(F)c(OC)c4)n3)cc21 [compound 1089] | – | – | ≤ 20 | ≤ 20 | –
19 | Fc1cnc(Nc2ccc3c(cnn3CC3CCCCC3)c2)nc1Nc1ccc(Cl)c(Cl)c1 [compound 1091] | – | – | > 20 | > 20 | –
20 | CC1(C)Oc2ccc(Nc3nc(Nc4ccc5c(cnn5C(C)(C)CC5CCCCC5)c4)ncc3F)cc2NC1=O [compound 1092] | – | – | ≤ 20 | ≤ 20 | –
21 | COc1cc(Nc2nc(Nc3ccc4c(cnn4C(C)(C)CC4CCCCC4)c3)ncc2F)ccc1F [compound 1093] | – | – | ≤ 20 | ≤ 20 | –

The next lines start with results.

Row | IC50 [1, 5] [µM] | IC50 [2, 6] [µM] | IC50 ([1]; A549 (lung) cells) [µM] | IC50 ([2]; H1299 (lung) cells) [µM] | Compound | other results
22 | ≤ 20 | ≤ 20 | – | – | Cc1cc(C)cc(Nc2ncc(F)c(Nc3cccc(Nc4ncc[nH]4)c3)n2)c1 [compound 1052] | –
23 | > 20 | > 20 | – | – | CC(=O)N1CCN(c2ccc(Nc3ncc(F)c(Nc4cccc(Nc5ncc[nH]5)c4)n3)cc2)CC1 [compound 1058] | –
24 | > 20 | > 20 | – | – | CC(=O)N1CCN(c2cccc(Nc3ncc(F)c(Nc4cccc(Nc5ncc[nH]5)c4)n3)c2)CC1 [compound 1059] | –
25 | – | – | ≤ 20 | ≤ 20 | COc1cccc(Nc2ncc(F)c(Nc3ccc4c(c3)NC(=O)CO4)n2)c1C [compound 1062] | –
26 | – | – | ≤ 20 | ≤ 20 | Cc1c(O)cccc1Nc1ncc(F)c(Nc2ccc3c(c2)NC(=O)CO3)n1 [compound 1063] | –
27 | – | – | > 20 | > 20 | CCCn1ncc2cc(Nc3ncc(F)c(Nc4ccc(Cl)c(Cl)c4)n3)ccc21 [compound 1075] | –
28 | – | – | ≤ 20 | ≤ 20 | CCCn1ncc2ccc(Nc3ncc(F)c(Nc4ccc5c(c4)NC(=O)C(C)(C)O5)n3)cc21 [compound 1080] | –
29 | – | – | ≤ 20 | > 20 | CCCCn1ncc2cc(Nc3ncc(F)c(Nc4ccc(OC)c(Cl)c4)n3)ccc21 [compound 1082] | –
30 | – | – | ≤ 20 | ≤ 20 | CCCCn1ncc2cc(Nc3ncc(F)c(Nc4ccc5c(c4)NC(=O)C(C)(C)O5)n3)ccc21 [compound 1084] | –
31 | – | – | ≤ 20 | ≤ 20 | CCCCn1ncc2ccc(Nc3ncc(F)c(Nc4ccc(OC)c(Cl)c4)n3)cc21 [compound 1086] | –
32 | – | – | ≤ 20 | ≤ 20 | CCCCn1ncc2ccc(Nc3ncc(F)c(Nc4ccc5c(c4)NC(=O)C(C)(C)O5)n3)cc21 [compound 1088] | –
33 | – | – | ≤ 20 | ≤ 20 | COc1ccc(Nc2nc(Nc3ccc4c(cnn4CC4CCCCC4)c3)ncc2F)cc1Cl [compound 1090] | –
